Assay results published in BindingDB's records for doi:10.1016/j.bmcl.2012.04.118 (Astrazeneca, 2012).
pIC50: −log10 of the molar value.

Assay: Inhibition of MCP1-induced CCR2-mediated chemotaxis in human THP-1 cells

pIC50: 8.29
SMILES: CC(C)N1CCN[C@@H](C(=O)N2CCN(C(=O)Nc3ccc(Cl)c(Cl)c3)CC2)C1
